Among the data in US11312727B1, “Macrocyclic flu endonuclease inhibitors” (Janssen BioPharma, Inc., priority 2018, dated 2022) are CC50 and EC50 values, retold here.

Structures are written as SMILES.

A word on the CC50: it is the concentration at which the toxic effect on the cells reaches its halfway point. A low value points to greater toxicity to the cells. A word on the EC50: it is the concentration at which the effect is half-maximal.

A short description of one series: in vitro. As to conditions: human, CC50, uninfected A549 cells, CellTiter-Glo.
Series [1] deals with Influenza strain A549 A/WSN/33 (H1N1). Briefly: microbe, parasite or virus in culture. The format is cell-based. To be noted: Influenza A virus, A549, 20 h, A549 cells, influenza A/WSN/33 (H1N1), 20 hours incubation; read-out: A549_A(H1N1) EC50.

Molecule `O=C1c2c(O)c(=O)ccn2N2CN1C/C=C/CCc1cc(F)c(F)cc1[C@@H]2c1ccccn1` (single isomer, unassigned) [Compound 58A, (16*R,E)-13,14-difluoro-4-hydroxy-16-(pyridin-2-yl)-7,10,11,16-tetrahydro-6,17-methanobenzo[k]pyrido[1,2-b][1,2,5]triazacyclotridecine-3,5-dione] yielded a CC50 in the series “in vitro” of more than 2000 nM. Also, in series [1], the EC50 worked out at 44 nM.
Consider `CC[C@H]1/C=C/COc2c(ccc(F)c2F)[C@@H](c2ccccn2)N2CN1C(=O)c1c(O)c(=O)ccn12` (single isomer, unassigned) [Compound 160AA, (9*S,18*S,*E)-9-ethyl-3,4-difluoro-12-hydroxy-18-(pyridin-2-yl)-6,9-dihydro-18H-10,17-methanobenzo[b]pyrido[1,2-f][1]oxa[5,6,9]triazacyclotridecine-11,13-dione], for which the cytotoxic concentration (CC50) in “in vitro” was more than 100 nM. In addition, the EC50 in series [1] was 5.2 nM.
In the series “in vitro”, `CC[C@@H]1/C=C/COc2c(ccc(Cl)c2F)[C@H](c2ccccc2)N2CN1C(=O)c1c(O)c(=O)ccn12` (single isomer, unassigned) [Compound 170AB, (9*R,18*S,E)-3-chloro-9-ethyl-4-fluoro-12-hydroxy-18-phenyl-6,9-dihydro-18H-10,17-methanobenzo[b]pyrido[1,2-f][1]oxa[5,6,9]triazacyclotridecine-11,13-dione] displayed a CC50 of more than 100 nM. Moreover, the concentration giving a half-maximal response (EC50) in series [1] is more than 50 nM.
The molecule `O=C1c2c(O)c(=O)ccn2N2CN1C1(/C=C/COc3c(ccc(Cl)c3Cl)[C@@H]2c2ccccc2)CC1` (single isomer, unassigned) [Compound 113B, (18′*S,*E)-3′,4′-dichloro-12′-hydroxy-18′-phenyl-6′H,18′H-spiro[cyclopropane-1,9′-[10,17]methanobenzo[b]pyrido[1,2-f][1]oxa[5,6,9]triazacyclotridecine]-11′,13′-dione] displayed a CC50 in “in vitro” of more than 200 nM. Further, the half-maximal effective concentration (EC50) in series [1] amounted to 2 nM.
In turn, `O=C1c2c(O)c(=O)ccn2N2CN1CC[C@H]1C[C@H]1COc1cccc3c1C2c1ccccc1SC3` (single isomer, unassigned) [Compound 144BB, (1*S,13*R,15*R)-7-hydroxy-17-oxa-24-thia-2,3,10-triazaheptacyclo[16.12.1.12,10.03,8.013,15.022,31.025,30]dotriaconta-4,18,20,22(31),25(30),26,28-heptaene-6,9-dione] gave a CC50 in the series “in vitro” of more than 4000 nM. The concentration for a half-maximal effect (EC50) in series [1] turned out to be 51.3 nM.
Regarding `O=C1c2c(O)c(=O)ccn2N2CN1CCC/C=C/COc1ccccc1[C@@H]2c1ccccc1` (single isomer, unassigned) [Compound 67B, (2*S,*Z)-15-hydroxy-2-phenyl-12,13,14,16-tetrahydro-11H-4-oxa-1(1,3)-pyrido[2,1-f][1,2,4]triazina-3(1,2)-benzenacyclodecaphan-6-ene-14,16-dione], the CC50 in the series “in vitro” was more than 2000 nM. The EC50 in series [1] is more than 1000 nM.
For `O=C1c2c(O)c(=O)ccn2N2CN1C[C@@H]1C[C@H]1COc1c(ccc(F)c1F)[C@H]2c1ccccc1` (single isomer, unassigned) [Compound 139BB, (1a*R,8*R,17a*R)-4,5-difluoro-14-hydroxy-8-phenyl-1a,2,17,17a-tetrahydro-1H,8H-9,16-methanobenzo[b]cyclopropa[k]pyrido[1,2-f][1]oxa[5,6,9]triazacyclotridecine-13,15-dione], in that order: more than 50 nM and more than 25 nM.
The corresponding values for `CC[C@@H]1/C=C/COc2cc(Cl)ccc2[C@H](c2ccccc2)N2CN1C(=O)c1c(O)c(=O)ccn12` (single isomer, unassigned) [Compound 97BA] are more than 1000 nM and more than 500 nM.
For `O=C1c2c(O)c(=O)ccn2N2CN1C/C=C\COc1ccccc1[C@H]2c1ccc(F)cc1` (single isomer, unassigned) [Compound 47A, (18*R,Z)-18-(4-fluorophenyl)-12-hydroxy-6,9-dihydro-18H-10,17-methanobenzo[b]pyrido[1,2-f][1]oxa[5,6,9]triazacyclotridecine-11,13-dione], in that order: more than 2000 nM and more than 1000 nM.
The molecule `O=C1c2c(O)c(=O)ccn2N2CN1C/C=C\COc1cc(Cl)ccc1[C@H]2c1ccccc1` (single isomer, unassigned) [Compound 72A, (18*R,Z)-3-chloro-12-hydroxy-18-phenyl-6,9-dihydro-18H-10,17-methanobenzo[b]pyrido[1,2-f][1]oxa[5,6,9]triazacyclotridecine-11,13-dione] had a cytotoxic concentration (CC50) in “in vitro” of more than 2000 nM. For the same molecule, the concentration for a half-maximal effect (EC50) in series [1] was more than 1000 nM.
The corresponding values for `O=C1c2c(O)c(=O)ccn2N2CN1CCCC/C=C\c1cccc3c1[C@@H]2c1ccccc1CC3` (single isomer, unassigned) [Compound 86B, (13*Z,23b*R)-6-hydroxy-10,11,12,18,19,23b-hexahydro-9H-1,8-methanobenzo[4,5]cyclohepta[1,2,3-qr]pyrido[1,2-c][2,3,6]benzotriazacyclotetradecine-5,7-dione] are more than 2000 nM and 27 nM.
The corresponding values for `O=C1c2c(O)c(=O)ccn2N2CN1C/C=C\COc1c(ccc(Cl)c1Cl)[C@@H]2c1ccccc1` (single isomer, unassigned) [Compound 103B, (18*S,Z)-3,4-dichloro-12-hydroxy-18-phenyl-6,9-dihydro-18H-10,17-methanobenzo[b]pyrido[1,2-f][1]oxa[5,6,9]triazacyclotridecine-11,13-dione] are more than 200 nM and 3.1 nM.
With `O=C1c2c(O)c(=O)ccn2N2CN1[C@@H](C(F)F)/C=C/COc1cccc3c1[C@@H]2c1ccccc1SC3` (single isomer, unassigned) [Compound 163BA, (9*R,17a*R,*E)-9-(difluoromethyl)-12-hydroxy-2,6,9,17a-tetrahydro-3,4-(epiprop[1]en[1]yl[3]ylidene)-10,17-methanobenzo[6,7]thiepino[4,5-c]pyrido[1,2-f][1]oxa[5,6,9]triazacyclotridecine-11,13-dione], the half-maximal cytotoxic concentration (CC50) in the series “in vitro” was more than 100 nM. In series [1], the EC50 was more than 50 nM.
For `O=C1c2c(O)c(=O)ccn2N2CN1CCC=CCOc1c(F)cccc1[C@@H]2c1ccccc1` (single isomer, unassigned) [Compound 84B, (19*S, E/Z)-4-fluoro-13-hydroxy-19-phenyl-9,10-dihydro-6H,19H-11,18-methanopyrido[2,1-i][1,7,10,11]benzoxatriazacyclotetradecine-12,14-dione], in that order: more than 200 nM and 5 nM.
For `CC[C@H]1/C=C/COc2c(ccc(Cl)c2Cl)[C@@H](c2ccccc2)N2CN1C(=O)c1c(O)c(=O)ccn12` (single isomer, unassigned) [Compound 121AB, (9*S,18*R,*E)-3,4-dichloro-9-ethyl-12-hydroxy-18-phenyl-6,9-dihydro-18H-10,17-methanobenzo[b]pyrido[1,2-f][1]oxa[5,6,9]triazacyclotridecine-11,13-dione], in that order: more than 200 nM and more than 100 nM.
The corresponding values for `O=C1c2c(O)c(=O)ccn2N2CN1C/C=C\COc1cc(F)ccc1[C@@H]2c1ccccn1` (single isomer, unassigned) [Compound 71A, (18*R,*Z)-3-fluoro-12-hydroxy-18-(pyridin-2-yl)-6,9-dihydro-18H-10,17-methanobenzo[b]pyrido[1,2-f][1]oxa[5,6,9]triazacyclotridecine-11,13-dione] are more than 200 nM and 34 nM.
